# Laboratory results taken from US20140329905A1, “HISTONE DEACETYLASE 10-INHIBITOR CO-TREATMENT IN CANCER” (Deutsches Krebsforschungszentrum, priority 2011, published 2014).
# pIC50: −log10 of the molar value. Read-outs that look alike come from different tables or passages of the source. Peptide text beside a SMILES is read from it. * marks the point of attachment. Cbz = O=C(OCc1ccccc1)*; CH2F = FC*
# What was measured:
# BE(2)-C cells [1] = assay: Acridine orange FACS quantification of acidic lysosomes; type: cell-based, human; conditions: for accumulation of acidic lysosomes (red fluorescence) by a panel of HDAC inhibitors: FIG. 1B, each inhibitor at its applied concentration (Table 1)
# Procedure: For quantification of acidic lysosomes, the amount of green respectively red fluorescence was determined, since the acidification of (auto-)lysosomes causes a shift from green to red fluorescence. […] Therefore, the cytoplasm and nucleolus glow bright green, whereas acidic compartments shine bright red. By comparing the mean red-to-green fluorescence ratio within different cell populations, detection and quantification of the acidic compartment is possible. Cells were stained with phenol red-free medium containing 1 μg/ml acridine orange (Sigma) at 37° C. for 30 min, collected and resuspended in 300 μl phenolred-free medium for FACS analysis.
# BE(2)-C cells [2] = assay: WST-1 metabolic activity assay; type: cell-based, human
# Procedure: (§1) WST-1 Assay. Metabolic activity was determined using the colorimetric WST-1 assay kit from Roche (Mannheim, Germany) as described in the manufacturer's manual.
# HDAC10 [3] = biological target: T1, HDAC10 (Homo sapiens, UniProt Q969S8); assay: In vitro HDAC10 activity assay by Reaction Biology Corporation; type: biochemical; conditions: read-out: IC50 HDAC10 from RBC
# T1 construct: Reaction Biology Corporation
# T1 sequence (Q969S8 1-669): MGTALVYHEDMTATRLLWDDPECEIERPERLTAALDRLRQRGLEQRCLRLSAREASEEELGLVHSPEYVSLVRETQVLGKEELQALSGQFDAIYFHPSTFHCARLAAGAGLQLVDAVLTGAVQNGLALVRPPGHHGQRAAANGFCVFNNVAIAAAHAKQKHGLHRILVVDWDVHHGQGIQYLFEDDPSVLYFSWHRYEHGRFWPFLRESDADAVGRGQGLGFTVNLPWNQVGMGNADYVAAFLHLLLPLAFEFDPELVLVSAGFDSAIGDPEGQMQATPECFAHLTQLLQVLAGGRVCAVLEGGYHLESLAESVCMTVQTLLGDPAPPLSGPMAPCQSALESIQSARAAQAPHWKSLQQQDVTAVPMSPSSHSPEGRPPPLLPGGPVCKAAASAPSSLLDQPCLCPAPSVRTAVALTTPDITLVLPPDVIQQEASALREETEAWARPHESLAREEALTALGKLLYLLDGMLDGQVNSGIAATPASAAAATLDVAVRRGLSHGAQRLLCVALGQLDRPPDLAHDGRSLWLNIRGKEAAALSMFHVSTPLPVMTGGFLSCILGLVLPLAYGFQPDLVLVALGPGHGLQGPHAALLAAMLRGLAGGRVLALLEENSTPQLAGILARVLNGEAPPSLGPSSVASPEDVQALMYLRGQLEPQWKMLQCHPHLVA
# Description: The inhibitory activity of compounds toward HDAC10 was investigated by Reaction Biology Corporation (Malvern, Pa., USA).
# BE(2)-C cells [4] = assay: ROS detection with CM-H2DCFDA by flow cytometry; type: cell-based, human; conditions: for effect on ROS production by HDAC10 targeting: 72 h after HDAC10 siRNA transfection
# Procedure: ROS generation was quantified using CM-H2DCFDA (Molecular Probes) according to the manufacturer's instructions. Cells were incubated for 20 min with 5 μM dye and fluorescence intensity was measured with FACSCalibur and analyzed with CellQuest Pro.
# BE(2)-C cells [5] = assay: Caspase-3-like protease (DEVD-ase) activity assay; type: cell-based, human; conditions: 6 d after HDAC10 siRNA; z-VAD 20 μM, 3-MA 2 mM
# Procedure: Caspase-3-like protease activity assay. Caspase-3-like protease activity was measured with the Caspase-3 Fluorometric Assay (BioVision) according to the manufacturer's protocol modified as described previously (Oehme et al. (2006), op. cit.). For cell death detection adherent as well as floating cells were collected.
# [6] = tested on: Neuroblastoma cells, medulloblastoma cells (BE(2)-C, Kelly, IMR32, Med8A); assay: WST-1 metabolic activity assay, tumor cells; type: cell-based, human; conditions: FIG. 13E; bufexamac 30 μM 6 d, co-treated with low-dose doxorubicin 72 h before assay
# Procedure: as §1
# astrocytes = assay: Acridine orange FACS quantification of acidic lysosomes; type: cell-based; conditions: FIG. 1D; human astrocytes, compared with neuroblastoma cells
# Procedure: For quantification of acidic lysosomes, the amount of green respectively red fluorescence was determined, since the acidification of (auto-)lysosomes causes a shift from green to red fluorescence. Acridine orange accumulates in lysosomal particles and the quenching of its fluorescence correlates with the DpH across the lysosomal membrane (Moriyama, Y, Takano, T and Ohkuma, S, (1982) Acridine orange as a fluorescent probe for lysosomal proton pump. J Biochem 92: 1333-6). Therefore, the cytoplasm and nucleolus glow bright green, whereas acidic compartments shine bright red. By comparing the mean red-to-green fluorescence ratio within different cell populations, detection and quantification of the acidic compartment is possible. Cells were stained with phenol red-free medium containing 1 μg/ml acridine orange (Sigma) at 37° C. for 30 min, collected and resuspended in 300 μl phenolred-free medium for FACS analysis. The green (510-530 nm) and the red (>650 nm) fluorescent emission of living cells, stimulated with blue laser (488 nm), were measured with FACSCalibur (Becton Dickinson, San José, Calif.) and analyzed with CellQuest Pro.
# HDAC10 [7] = biological target: T1, HDAC10; conditions: read-out: IC50 HDAC10 from literature; cited from earlier work
# BE(2)-C cells [8] = assay: Western blot of p62 protein levels (autophagic flux); type: cell-based, human; conditions: FIG. 13C; high-dose doxorubicin 0.5 μg/ml, 48 h
# Procedure: Western blot analysis was performed as described previously (Oehme et al. (2009), op. cit.). The following antibodies were used: anti-HDAC10 (Sigma), anti-LC3 (Sigma), anti-HDAC6 (Cell Signaling), anti-p62/SQSTM1 (MLB), anti-Hsc70 (Santa Cruz), anti-FLAG-M2 (Sigma) anti-GAPDH (Millipore), anti-Ac-Lysine (rabbit, Cell Signaling) and anti-β-Actin (clone AC-15, Sigma). β-Actin expression served as loading control. Ratios were calculated with the Bio-1D (Version 12.10a) Software. Protein extracts from primary neuroblastoma tumors from patients with the following characteristics were used: NB#1: […], stage 1, MYCN single copy. NB#2: […], stage 1, MYCN single copy. NB#3: […], stage 4, MYCN single copy. NB#4: […], stage 4, MYCN single copy.
# BE(2)-C cells [9] = assay: Cell death by trypan blue staining; type: cell-based, human; conditions: FIG. 13A; 0.01, 0.05, 0.1 μg/ml; 24, 48, 72 h; among BE(2)-C, Kelly, IMR32
# Procedure: (§2) Viability assay. Trypsinized cells were pooled with corresponding supernatant, centrifuged and resuspended in 1.5 ml cell culture media. Cell viability was measured by automated trypan blue staining with Vi-Cell XR Cell Viability Analyzer from Beckman Coulter (Krefeld, Germany).
# IMR32 cells = assay: Cell death by trypan blue staining; type: cell-based, human; conditions: FIG. 13A, 0.01, 0.05, 0.1 μg/ml, 24, 48, 72 h, among BE(2)-C, Kelly
# Procedure: as §2
# Kelly cells = assay: WST-1 metabolic activity assay; type: cell-based, human; conditions: NAC on day 4 and 5, measured day 6
# Procedure: as §1
smiles,measurement,setting,value
CO/C1=C\C(C)=C\[C@@H](C)[C@@H](O)[C@@H](C)C/C(C)=C/C=C/[C@H](OC)[C@@H]([C@@H](C)[C@@H](O)[C@H](C)[C@@]2(O)C[C@@H](O)[C@H](C)[C@@H](C(C)C)O2)OC1=O [Bafilomycin A1],effect on TSA-induced shift to red fluorescence,"BE(2)-C cells [1]; FIG. 2, co-treatment Baf.A 10 nM with TSA 75 nM",inhibited the TSA-induced shift to red fluorescence
same,effect on lysosome acidification induced by HDAC10 knockdown,"BE(2)-C cells [1]; FIG. 4A, Baf. A 10 nM, HDAC10 siRNA",blocked lysosome acidification induced by HDAC10 knockdown
CN1C(=O)C(Cc2c[nH]c3ccccc23)NC1=S (centres unmarked) [necrostatin],viability (metabolic activity) upon HDAC10 knockdown,"BE(2)-C cells [2]; 6 d post-transfection, necrostatin 50 μM in combination with z-VAD 20 μM",completely rescue
"CCCC(CCC)C(=O)O [VPA, valproic acid]",accumulation of acidic lysosomes (red fluorescence) by a panel of HDAC inhibitors,BE(2)-C cells [1]; BE(2)-C,did not increase the amount of red fluorescent cells
same,pIC50,HDAC10 [3],< 2.00
CC(=O)N(O)CCCCCNC(=O)CCC(=O)N(O)CCCCCNC(=O)CCC(=O)N(O)CCCCCN [DFO],effect on ROS production by HDAC10 targeting,BE(2)-C cells [4],inhibited
"Cc1[nH]c2ccccc2c1CCNCc1ccc(/C=C/C(=O)NO)cc1 [Panobinostat (LBH589), (2E)-N-hydroxy-3-[4-({[2-(2-methyl-1H-indol-3-yl)ethyl]amino}methyl)phenyl]acrylamide]",accumulation of acidic lysosomes (red fluorescence) by a panel of HDAC inhibitors,BE(2)-C cells [1]; BE(2)-C,significant increase in red fluorescence
Cn1cnc(=N)c2[nH]cnc21 [3-MA],effect on HDAC10-knockdown mediated apoptosis (caspase-3 like activity),BE(2)-C cells [5],did not affect the induction of cell death upon targeting of HDAC10
"CC(C=CC(=O)NO)=CC(C)C(=O)c1ccc(N(C)C)cc1 (centres unmarked) [TSA, 7-[4-(dimethylamino)phenyl]-N-hydroxy-4,6-dimethyl-7-oxohepta-2,4-dienamide]",ROS generation,"BE(2)-C cells [4]; TSA 75 nM, 24 h",TSA-induced ROS generation
same,accumulation of acidic lysosomes (red fluorescence) by a panel of HDAC inhibitors,BE(2)-C cells [1]; BE(2)-C,significant increase in red fluorescence
"CCCCOc1ccc(CC(=O)NO)cc1 [Bufexamac, 2-(4-butoxyphenyl)-N-hydroxyacetamide]",metabolic activity (WST-1),[6],significantly decreased metabolic activity
same,shift to red fluorescence (acidic lysosomes),astrocytes,very moderate shift to red fluorescence
same,effect of bufexamac in NB cells compared to the knockdown of HDAC10 expression,BE(2)-C cells [2]; BE(2)C cells,rather low
same,metabolic activity (WST-1),"BE(2)-C cells [2]; FIG. 9E, bufexamac 100 μM 3 days, co-treated with doxorubicin 0.1 μg/ml 24 h before assay",strongly reduced metabolic activity
same,accumulation of acidic lysosomes (red fluorescence) by a panel of HDAC inhibitors,BE(2)-C cells [1]; BE(2)-C,significant increase in red fluorescence
same,pIC50,HDAC10 [7],4.91
CC(NC(=O)C(NC(=O)OCc1ccccc1)C(C)C)C(=O)NC(CC(=O)O)C(=O)CF (stereo not drawn) [zVAD] (Cbz-Val-Ala-Asp-CH2F; configuration not given here),viability (metabolic activity) upon HDAC10 knockdown,"BE(2)-C cells [2]; 6 d post-transfection, z-VAD 20 μM on day 4 and 5",partly restored viability
same,effect on HDAC10-knockdown mediated apoptosis (caspase-3 like activity),BE(2)-C cells [5],abolished HDAC10-knockdown mediated induction of apoptosis
COc1cccc2c1C(=O)c1c(O)c3c(c(O)c1C2=O)C[C@@](O)(C(=O)CO)C[C@@H]3O[C@H]1C[C@H](N)[C@H](O)[C@H](C)O1 [doxorubicin],"autophagic flux, measurable by p62 degradation",BE(2)-C cells [8],enhanced autophagic flux
same,"sensitivity towards doxorubicin treatment (cell death, % trypan blue positive)",BE(2)-C cells [9],highest resistance
same,"sensitivity towards doxorubicin treatment (cell death, % trypan blue positive)",IMR32 cells,highest sensitivity
CC(=O)N[C@@H](CS)C(=O)O [NAC],effect on ROS production by HDAC10 targeting,BE(2)-C cells [4],inhibited
same,viability (metabolic activity) upon HDAC10 knockdown,"BE(2)-C cells [2]; BE(2)-C, NAC on day 4 and 5, measured day 6",restored viability of NB cells
same,viability (metabolic activity) upon HDAC10 knockdown,Kelly cells,restored viability of NB cells
COc1ccc(Cn2ccc3ccc(C(=O)NO)cc32)cc1 [PCI-34051],accumulation of acidic lysosomes (red fluorescence) by a panel of HDAC inhibitors,BE(2)-C cells [1]; BE(2)-C,did not
"O=C(CCCCCCC(=O)Nc1ccccc1)NO [Vorinostat (SAHA), N-hydroxy-N′-phenyl-octanediamide]",accumulation of acidic lysosomes (red fluorescence) by a panel of HDAC inhibitors,BE(2)-C cells [1]; BE(2)-C,significant increase in red fluorescence
CCN(CC)CCCC(C)Nc1ccnc2cc(Cl)ccc12 (centres unmarked) [Chloroquine],induction of acidic lysosomes and late endosomes,"BE(2)-C cells [1]; FIG. 2, FIG. 5C, BE(2)-C, chloroquine 25 μM, rapamycin 100 nM",served as positive controls for the induction of acidic lysosomes and late endosomes
"CN(C)Cc1c(C(=O)NCCOc2ccc(C(=O)NO)cc2)oc2ccccc12 [PCI-24781, 3-(dimethylaminomethyl)-N-[2-[4-(hydroxycarbamoyl)-phenoxy]ethyl]-1-benzofuran-2-carboxamide]",accumulation of acidic lysosomes (red fluorescence) by a panel of HDAC inhibitors,BE(2)-C cells [1]; BE(2)-C,significant increase in red fluorescence
O=C(CCCCCCC(=O)Nc1ccc([C@H]2O[C@@H](CSc3nc(-c4ccccc4)c(-c4ccccc4)o3)C[C@@H](c3ccc(CO)cc3)O2)cc1)NO [Tubacin],accumulation of acidic lysosomes (red fluorescence) by a panel of HDAC inhibitors,BE(2)-C cells [1]; BE(2)-C,did not increase the amount of red fluorescent cells
